Test results from patent publication US8030336B2, “Nicotinamide-based kinase inhibitors” (YM Biosciences Australia Pty Ltd, priority 2002, dated 2011).

Legend:
Type in all cases: biochemical
Zap70 = target: T1, Zap70 (Homo sapiens, UniProt P43403); assay: Zap70 kinase assay (ELISA or Alphascreen); conditions: read-out: Zap70 inhibition of enzyme activity
T1 sequence (P43403 338-600 limits assumed): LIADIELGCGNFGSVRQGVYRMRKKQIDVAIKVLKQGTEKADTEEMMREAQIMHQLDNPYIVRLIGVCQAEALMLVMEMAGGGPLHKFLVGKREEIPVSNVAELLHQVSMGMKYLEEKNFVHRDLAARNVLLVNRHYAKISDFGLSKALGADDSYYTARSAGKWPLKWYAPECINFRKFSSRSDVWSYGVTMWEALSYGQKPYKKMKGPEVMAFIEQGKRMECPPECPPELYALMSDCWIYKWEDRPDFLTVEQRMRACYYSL
Method: (§1) Kinase assays were performed in a 96 well capture-based ELISA assay or in 384 well Optiplates (Packard) using an Alphascreen Protein Tyrosine Kinase kit. In either case using approximately 1.5 μg of affinity purified PTK domain in the presence of 50 mM HEPES, pH 7.5, 10 mM MgCl2, 150 mM NaCl and 10 μM-1 mM ATP. The biotinylated substrate biotin-EGPWLEEEEEAYGWMDF-NH2 (SEQ ID NO:9) (final concentration 5 μM) was used as substrate. In the ELISA assay tyrosine phosphorylation was quantitated following transfer to an avidin coated ELISA plate using peroxidase-linked anti-phosphotyrosine antibody PY20. In the Alphascreen assay, Alphascreen phosphotyrosine acceptor beads followed by streptavidin donor beads were added under subdued light. The ELISA plates were read on a BMG Fluorostar, the Alphascreen plates were read on a Packard Fusion Alpha. Inhibitors were added to the assays fifteen minutes prior to the addition of ATP. Inhibitors were added in aqueous […] concentrations never exceeding 1%.

abl = target: T2, abl (Homo sapiens, UniProt P00519); assay: abl kinase assay (ELISA or Alphascreen); conditions: read-out: abl inhibition of enzyme activity
T2 sequence (P00519 242-493 limits assumed): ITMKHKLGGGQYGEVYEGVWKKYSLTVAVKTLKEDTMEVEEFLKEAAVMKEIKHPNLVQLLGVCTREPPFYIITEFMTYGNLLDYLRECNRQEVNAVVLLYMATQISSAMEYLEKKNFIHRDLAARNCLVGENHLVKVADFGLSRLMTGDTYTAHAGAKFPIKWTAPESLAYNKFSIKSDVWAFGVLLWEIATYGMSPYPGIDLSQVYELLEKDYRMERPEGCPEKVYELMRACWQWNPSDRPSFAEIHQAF
Method: as §1

fes = fes (Homo sapiens, UniProt P07332); assay: fes kinase assay (ELISA or Alphascreen); conditions: read-out: fes inhibition of enzyme activity
Method: as §1

human JAK3 = target: T3, human JAK3 (Homo sapiens, UniProt P52333); assay: JAK3 kinase assay (ELISA or Alphascreen); conditions: read-out: Jak3 inhibition of enzyme activity
T3 construct: The kinase domain of human JAK3 was amplified from U937mRNA; His tag (from the pFastBac HTb vector) (N); made in house; host or cells: baculovirus; Sf9 for virus, High Five insect cells for production
Text: The kinase domain of human JAK3 was amplified from U937mRNA using the polymerase chain reaction with the following primers: […]
JAK3 PCR products were cloned into the pFastBac HTb expression vector (Gibco) via the Xho I and Kpn I sites. The JAK3 plasmid was then transformed into competent DH10Bac cells (Gibco), and the recombinant baculovirus produced prepared for transfection into Sf9 insect cells.
(§2) Baculovirus preparations from each of the JAK family members were infected into five liters of High Five cells (Invitrogen) grown in High Five serum free medium (Invitrogen) to a cell density of approximately 1-2×10^6 cells/ml. Cells are infected with virus at a MOI of 0.8-3.0. Cells were harvested and lysed. JAK kinase domains were purified by affinity chromatography on a Probond (Invitrogen) nickel chelate affinity column.
as §1

fms = target: T4, fms (Homo sapiens, UniProt P07333); assay: fms kinase assay (ELISA or Alphascreen); conditions: read-out: fms inhibition of enzyme activity
T4 sequence (P07333 582-910 limits assumed): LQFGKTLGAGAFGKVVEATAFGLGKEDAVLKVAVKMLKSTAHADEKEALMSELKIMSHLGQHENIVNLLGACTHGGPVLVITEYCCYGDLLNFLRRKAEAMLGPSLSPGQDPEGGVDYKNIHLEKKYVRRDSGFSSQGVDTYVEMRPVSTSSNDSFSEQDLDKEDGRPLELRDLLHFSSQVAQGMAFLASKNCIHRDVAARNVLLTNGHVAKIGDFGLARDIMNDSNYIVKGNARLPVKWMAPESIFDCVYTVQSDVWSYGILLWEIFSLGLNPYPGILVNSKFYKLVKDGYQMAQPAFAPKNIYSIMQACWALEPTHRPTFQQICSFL
Method: as §1

human JAK2 = target: T5, human JAK2 (Homo sapiens, UniProt O60674); assay: JAK2 kinase assay (ELISA or Alphascreen); conditions: read-out: Jak2 inhibition of enzyme activity
T5 construct: The kinase domain of human JAK2 was amplified from U937mRNA; His tag (from the pFastBac HTc vector) (N); made in house; host or cells: baculovirus; Sf9 for virus, High Five insect cells for production
Text: The kinase domain of human JAK2 was amplified from U937mRNA using the polymerase chain reaction with the following primers: […]
JAK2 PCR products were doped into the pFastBac HTc expression vector (Gibco) via the Sal I and Not I sites. The JAK2 plasmid was than transformed into competent DH10Bac cells (Gibco), and the recombinant baculovirus produced prepared for transfection into Sf9 insect cells.
as §2, §1

T5 sequence (O60674 849-1124 limits assumed): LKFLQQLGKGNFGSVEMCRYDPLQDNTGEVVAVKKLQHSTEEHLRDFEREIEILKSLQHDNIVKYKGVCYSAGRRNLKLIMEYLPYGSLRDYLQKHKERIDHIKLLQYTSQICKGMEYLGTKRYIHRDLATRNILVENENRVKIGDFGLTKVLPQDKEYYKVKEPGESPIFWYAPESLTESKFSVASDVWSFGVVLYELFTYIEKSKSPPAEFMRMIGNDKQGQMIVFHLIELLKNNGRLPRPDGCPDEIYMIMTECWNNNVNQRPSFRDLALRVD
T3 sequence (P52333 822-1111 limits assumed): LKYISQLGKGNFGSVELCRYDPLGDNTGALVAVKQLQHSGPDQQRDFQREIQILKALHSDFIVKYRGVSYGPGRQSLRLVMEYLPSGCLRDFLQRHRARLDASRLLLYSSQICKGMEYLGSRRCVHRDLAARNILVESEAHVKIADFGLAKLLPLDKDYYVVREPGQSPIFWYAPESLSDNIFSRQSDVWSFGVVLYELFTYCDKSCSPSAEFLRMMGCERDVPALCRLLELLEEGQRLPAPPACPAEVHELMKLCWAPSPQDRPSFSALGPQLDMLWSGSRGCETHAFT
Sequence of fes (P07332 561-822 limits assumed, species assumed): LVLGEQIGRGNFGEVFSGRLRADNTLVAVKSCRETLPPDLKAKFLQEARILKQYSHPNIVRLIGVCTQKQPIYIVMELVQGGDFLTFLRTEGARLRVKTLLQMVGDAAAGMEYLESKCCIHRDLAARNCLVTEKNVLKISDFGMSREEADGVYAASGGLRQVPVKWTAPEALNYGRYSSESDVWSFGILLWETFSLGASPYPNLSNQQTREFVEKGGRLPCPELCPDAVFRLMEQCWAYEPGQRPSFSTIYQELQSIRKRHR

inhibition at 10 µM (Zap70) [%] | inhibition at 10 µM (abl) [%] | inhibition at 10 µM (fes) [%] | inhibition at 10 µM (human JAK3) [%] | inhibition at 10 µM (fms) [%] | inhibition at 10 µM (human JAK2) [%] | Structure (SMILES)
< 50 | < 50 | < 50 | < 50 | < 50 | < 50 | COc1cc(CNC(=O)c2cncc(-c3ccc(O)cc3)c2)cc(OC)c1
< 50 | ≥ 50 | < 50 | < 50 | < 50 | < 50 | Cc1ccc(F)cc1NC(=O)c1cncc(-c2ccc(O)cc2)c1
< 50 | < 50 | < 50 | – | < 50 | < 50 | Cc1cc(-c2cncc(C(=O)N[C@@H](C)c3ccccc3)c2)cc(C)c1O
< 50 | < 50 | < 50 | < 50 | < 50 | < 50 | Cc1ccc(CNC(=O)c2cncc(-c3cc(C)c(O)c(C)c3)c2)cc1
< 50 | ≥ 50 | ≥ 50 | < 50 | ≥ 50 | < 50 | Cc1ccc(C)c(CNC(=O)c2cncc(-c3cc(C)c(O)c(C)c3)c2)c1
< 50 | < 50 | < 50 | < 50 | – | < 50 | COc1ccc(NC(=O)c2cncc(-c3cc(C)c(O)c(C)c3)c2)c(OC)c1
< 50 | < 50 | – | < 50 | < 50 | < 50 | COc1cc(-c2cncc(C(=O)NC(CO)C(C)C)c2)c(Cl)c(OC)c1OC (stereo not shown)
< 50 | < 50 | < 50 | < 50 | – | < 50 | COc1cc(-c2cncc(C(=O)NCc3ccc(C)cc3)c2)c(Cl)c(OC)c1OC
< 50 | < 50 | < 50 | < 50 | < 50 | < 50 | COc1ccc(NC(=O)c2cncc(-c3cc(OC)c(OC)c(OC)c3Cl)c2)c(OC)c1
< 50 | – | < 50 | < 50 | < 50 | < 50 | O=C(NCc1ccc(Cl)c(Cl)c1)c1cncc(-c2ccc3c(c2)OCO3)c1
< 50 | < 50 | < 50 | < 50 | < 50 | < 50 | O=C(Nc1ccccc1)c1cncc(-c2ccc3c(c2)OCO3)c1
< 50 | < 50 | < 50 | < 50 | < 50 | < 50 | Cc1ccc(C)c(NC(=O)c2cncc(-c3ccc4c(c3)OCO4)c2)c1
< 50 | < 50 | < 50 | < 50 | < 50 | < 50 | O=C(NCCO)c1cncc(-c2cccs2)c1
< 50 | < 50 | ≥ 50 | < 50 | < 50 | < 50 | Cc1ccc(C)c(NC(=O)c2cncc(-c3cccs3)c2)c1
< 50 | < 50 | < 50 | < 50 | < 50 | – | Cc1cc(F)ccc1NC(=O)c1cncc(-c2cccs2)c1
< 50 | < 50 | < 50 | < 50 | < 50 | < 50 | Cc1ccccc1NC(=O)c1cncc(-c2cccnc2)c1
< 50 | – | < 50 | < 50 | < 50 | < 50 | CN1CCN(c2ccc(CNC(=O)c3cncc(-c4ccc(F)cc4)c3)cc2)CC1
< 50 | < 50 | < 50 | < 50 | < 50 | ≥ 50 | O=C(NCc1ccc(F)cc1)c1cncc(-c2ccc(F)cc2)c1
< 50 | < 50 | < 50 | < 50 | < 50 | < 50 | O=C(NCc1ccncc1)c1cncc(-c2ccc(F)cc2)c1
< 50 | < 50 | – | < 50 | < 50 | < 50 | CN1CCN(c2ccc(NC(=O)c3cncc(-c4ccc(F)cc4)c3)cc2)CC1
< 50 | – | < 50 | < 50 | < 50 | < 50 | O=C(NCCCn1ccnc1)c1cncc(-c2ccc(F)cc2)c1
< 50 | < 50 | < 50 | < 50 | < 50 | < 50 | COc1ccc(NC(=O)c2cncc(-c3ccc(F)cc3)c2)c(OC)c1
< 50 | < 50 | < 50 | < 50 | – | < 50 | Cc1ccccc1NC(=O)c1cncc(-c2ccc(F)cc2)c1
< 50 | – | < 50 | < 50 | < 50 | < 50 | C[C@H](NC(=O)c1cncc(-c2cccnc2)c1)c1ccccc1
< 50 | – | < 50 | < 50 | < 50 | < 50 | O=C(NCc1ccco1)c1cncc(-c2cccnc2)c1
< 50 | – | < 50 | < 50 | < 50 | < 50 | C[C@@H](NC(=O)c1cncc(-c2ccc(F)cc2)c1)c1ccccc1
≥ 50 | < 50 | < 50 | < 50 | – | < 50 | COc1cccc(-c2cncc(C(=O)Nc3cc(F)ccc3C)c2)c1
< 50 | < 50 | < 50 | < 50 | < 50 | < 50 | COc1cccc(-c2cncc(C(=O)Nc3ccccc3C)c2)c1
